# Measured values published in paper PMC12369603, “Functional characterization of antennae-enriched chemosensory protein 4 in emerald ash borer, Agrilus planipennis” (PeerJ, 2025).
# “And” between values parts separate entries of the source, which are not always exact repeats. Equal values may be shown once. Read-outs that look alike come from different tables or passages of the source.
# Legend:
# [1] = target: T1, recombinant AplaCSP4 (Agrilus planipennis chemosensory protein 4) (Agrilus planipennis, UniProt A0A1W4XLL0); experiment: Binding of fluorescent probe 1-NPN to AplaCSP4 (titration); conditions: 2 µM protein in 50 mM Tris–HCl pH 7.4 titrated with 1-NPN 2-16 µM; read-out: binding affinity constant (KD) between 1-NPN and AplaCSP4
# Experimental: Fluorescence competitive binding assays were conducted according to the method described by [Wang et al. (2021)]. Specifically, the binding affinities of AplaCSP4 for 43 volatile organic compounds were determined using F-380 fluorescence spectrophotometer (Tianjin, China) with a 10 nm slits and a 1 cm light path. These 43 substances are common green leaf volatiles, among which 16 volatiles originate from the ash tree. As the fluorescent probe, N-phenyl-1-naphthylamine (1-NPN) was excited at the wavelength of 337 nm, and emission spectra were recorded between 390 and 530 nm. […]
# [2] = target: T1, recombinant AplaCSP4 (Agrilus planipennis chemosensory protein 4); experiment: biochemical; format: binding; conditions: for Competitive binding capability(%) / activity at 2 µM / activity at 4 µM / activity at 6 µM / activity at 8 µM / activity at 10 µM / activity at 12 µM: three replicate columns, 100 at 0 μM
# Experimental: Specifically, the binding affinities of AplaCSP4 for 43 volatile organic compounds were determined using F-380 fluorescence spectrophotometer (Tianjin, China) with a 10 nm slits and a 1 cm light path. These 43 substances are common green leaf volatiles, among which 16 volatiles originate from the ash tree. […]
# Mythimna separata = tested on: Mythimna separata; set-up: method as in Younas et al., 2022; conditions: ref Younas et al., 2022; cited from earlier work
# Phyllotreta cruciferae = tested on: Phyllotreta cruciferae; set-up: method as in Cáceres et al., 2016; Sun et al., 2016; conditions: ref Cáceres et al., 2016, Sun et al.; cited from earlier work
# Cnaphalocrocis medinalis = tested on: Cnaphalocrocis medinalis; set-up: method as in Cáceres et al., 2016; Sun et al., 2016; conditions: ref Cáceres et al., 2016, Sun et al.; cited from earlier work
# [3] = ligand concentration 2 μM, 2 µM
# [4] = ligand concentration 4 μM, 4 µM
# [5] = ligand concentration 6 μM, 6 µM
# [6] = ligand concentration 8 μM, 8 µM
# [7] = ligand concentration 10 μM, 10 µM
# [8] = ligand concentration 12 μM, 12 µM
# T1 sequence (A0A1W4XLL0 entry or part of it): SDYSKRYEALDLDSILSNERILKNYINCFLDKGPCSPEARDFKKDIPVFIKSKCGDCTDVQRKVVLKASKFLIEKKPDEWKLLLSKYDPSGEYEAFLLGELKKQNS
compound,measurement,setting,value
"c1ccc(Nc2cccc3ccccc23)cc1 [1-NPN, N-phenyl-1-naphthylamine]",Kd,[1],9.36 µM
C=CC(C)(O)CCC=C(C)CCC=C(C)C (mixture of isomers) [Nerolidol],binding to AplaCSP4 (in words),[2]; discussion of fluorescence competitive binding results,particularly high binding affinity
same,Competitive binding capability(%),[2]; [3],51.463% and 50.752%
same,Competitive binding capability(%),[2]; [4],34.5446% and 32.1031%
same,Competitive binding capability(%),[2]; [5],25.4151% and 25.0577%
same,Competitive binding capability(%),[2]; [6],20.9595% and 20.5391%
same,Competitive binding capability(%),[2]; [7],17.6278% and 17.3179%
same,Competitive binding capability(%),[2]; [8],15.4258% and 15.6099%
same,activity at 2 µM,"[2]; pH 7.4, ligand concentration 2 μM, read-out: Competitive binding capability(%)",49.2%
same,activity at 4 µM,"[2]; pH 7.4, ligand concentration 4 μM, read-out: Competitive binding capability(%)",35.3%
same,activity at 6 µM,"[2]; pH 7.4, ligand concentration 6 μM, read-out: Competitive binding capability(%)",25.6%
same,activity at 8 µM,"[2]; pH 7.4, ligand concentration 8 μM, read-out: Competitive binding capability(%)",21.1%
same,activity at 10 µM,"[2]; pH 7.4, ligand concentration 10 μM, read-out: Competitive binding capability(%)",17.9%
same,activity at 12 µM,"[2]; pH 7.4, ligand concentration 12 μM, read-out: Competitive binding capability(%)",16.1%
same,Kd,[2]; read-out: K D ±SE (dissociation constant),1.38 ± 0.03 µM
same,attractive activity,Mythimna separata,attractive activity
CC(=O)/C=C/C1=C(C)CCCC1(C)C [β-Ionone],repellent activity,Phyllotreta cruciferae,repellent activity
same,Kd,[2],4.23 ± 0.07 µM
same,Competitive binding capability(%),[2]; [3],74.4951% and 75.2037%
same,Competitive binding capability(%),[2]; [4],60.2358% and 60.8061%
same,Competitive binding capability(%),[2]; [5],50.2199% and 51.0303%
same,Competitive binding capability(%),[2]; [6],42.8154% and 43.7153%
same,Competitive binding capability(%),[2]; [7],37.3498% and 38.224%
same,Competitive binding capability(%),[2]; [8],33.5198% and 33.2165%
same,activity at 2 µM,"[2]; pH 7.4, read-out: Competitive binding capability(%), ligand concentration 2 μM",75.8%
same,activity at 4 µM,"[2]; pH 7.4, read-out: Competitive binding capability(%), ligand concentration 4 μM",61.2%
same,activity at 6 µM,"[2]; pH 7.4, read-out: Competitive binding capability(%), ligand concentration 6 μM",51.9%
same,activity at 8 µM,"[2]; pH 7.4, read-out: Competitive binding capability(%), ligand concentration 8 μM",45%
same,activity at 10 µM,"[2]; pH 7.4, read-out: Competitive binding capability(%), ligand concentration 10 μM",38.5%
same,activity at 12 µM,"[2]; pH 7.4, read-out: Competitive binding capability(%), ligand concentration 12 μM",34.6%
same,repellent activity,Cnaphalocrocis medinalis,repellent activity
